The record followed here is patent publication US8093218B2, “Peptide derived from vascular endothelial growth factor receptor-1 binding integrin α5β1 having proangiogenic activity” (Provincia Italiana della Congregazione dei Figli …, priority 2006, dated 2012).

In assay [1] the test system is HUVEC adhesion to peptide 12. The assay is described as follows: adhesion of HUVEC to peptide 12 in presence of chelating agents or anti-integrin antibodies. The format is cell-based, human. The conditions noted are these: EDTA or EGTA treatment. As to the method: The peptide 12 or the BSA, as non-specific adhesion control, were linked on plates and the HUVEC added in the presence of chelating agents (EDTA or EGTA).
The HUVEC were pre-incubated with an antibody against the integrin α5β1 or versus the integrinic subunit α6 and left to adhere on plates covered with peptide 12 or BSA.

The subject of assay [2] is HUVEC. The assay is described as follows: adhesion of HUVEC on plates with covalently linked peptides. In kind it is cell-based, human. To be noted: HUVEC incubated 1 hour on covalently linked peptide. Here is the method: To establish whether the four peptides, were able to inhibit the adhesion of the EC to VEGFR-1, by supporting directly the adhesion of the EC, the peptides were linked covalently to plates and the HUVEC were incubated on plates for 1 hour. The peptide 1 was used as negative control and the peptide RGD as the positive control. Unspecific adhesion was measured by absorbance in the plates covered with BSA.

The subject of assay [3] is HUVEC migration induced by fibronectin (FN). Kind of assay: EC migration in Boyden chambers induced by fibronectin. The format is cell-based, human. To be noted: HUVEC pre-incubated with peptide. As to the method: (§1) In order to investigate the ability to peptide 12 to influence the migration of the EC induced from VEGFR-1/Fc, a process mediated from the integrin α5β1, the HUVEC were pre-incubated with peptide 12 and peptide 1 and placed in Boyden chambers in order to analyze the migration induced from VEGFR-1/Fc or fibronectin (FN). Data represent the average of 14 microscopic fields and are referred to as percentage of inhibition compared to the migration observed in the absence of peptides.

In assay [4] the test system is HUVEC adhesion to fibronectin (FN). Kind of assay: inhibition by peptides of EC adhesion to fibronectin. The format is cell-based, human. To be noted: peptide added to HUVEC suspension before plating. As to the method: (§2) In order to test the ability of the twelve chosen peptides to inhibit the adhesion of the EC to VEGFR-1 mediated from the integrin α5β1, every peptide was added to one suspension of HUVEC before plated on dishes covered with VEGFR-1/Fc or fibronectin (FN). The data were indicated as percentage of adhesion, calculated to the number of cells adhered on the substrate itself in absence of peptides.

Assay [5] has as its system HUVEC migration induced from VEGFR-1/Fc. Kind of assay: EC migration in Boyden chambers induced by VEGFR-1/Fc. In kind it is cell-based, human. The conditions noted are these: HUVEC pre-incubated with peptide. As to the method: as §1
In assay [6] the test system is HUVEC adhesion to VEGFR-1/Fc. The assay is described as follows: inhibition by peptides of EC adhesion to VEGFR-1/Fc. The format is cell-based, human. The conditions noted are these: peptide added to HUVEC suspension before plating. As to the method: as §2
Another assay concerns the target integrin α5β1 (Homo sapiens, UniProt P05556+P08648). The assay is described as follows: integrin α5β1 aggregation around peptide-coated magnetic beads (immunostaining). In kind it is cell-based. More on the design: endogenous in cells; host or cells: HUVEC. To be noted: magnetic beads coated with peptide, immunostaining for integrin α5β1. Here is the method: The integrins not linked are widely distributed on cellular membrane, but after the ligand binding and the activation merged in distinct structures called focal contacts and ECM contact.
It was examined whether the peptide 12 was able to induce aggregation of integrin α5β1 after the binding. EC adherent cells were incubated with magnetic beads coated with peptide 12, or peptide RGD or peptide RGE respectively as positive and negative controls, and immunostained with an antibody against integrin α5β1.

Assay [7] concerns HUVEC. The assay is described as follows: formation of tubules of EC in Type I collagen gel. The format is cell-based, human. Here is the method:
It was tested the ability of the peptide 12 to induce the formation of tubules of EC. HUVEC cells were plated on 24 wells plates previously covered with a mixture of gel Type I collagen, in the absence or presence of 500 μg/ml peptide 12 or peptide 1. A second layer of gel Type I collagen was placed on the adherent cells. As shown, in the absence or presence of peptides, were added, in the culture medium, different concentrations of VEGF (40 or 100 nM), or 20 μg/ml of protein VEGFR-1/Fc.

The next assay has as its system rabbit corneal tissue. The assay is described as follows: rabbit corneal neovascularization with peptide-releasing pellets. In kind it is in vivo. To be noted: rabbit cornea, monitored for 17 days. The text has this: The FIGS. 6A and 6B show the effect on angiogenesis of the peptide 12 or Y220 compare to VEGF at different concentrations.
To address the angiogenic role, in vivo, pellets releasing peptide 12 were implanted into rabbit corneal tissue and neovascularization was monitored for 17 days.

“Also recorded” adds a separate entry of the source.

Chain of integrin α5β1 (P08648 42-894 limits assumed): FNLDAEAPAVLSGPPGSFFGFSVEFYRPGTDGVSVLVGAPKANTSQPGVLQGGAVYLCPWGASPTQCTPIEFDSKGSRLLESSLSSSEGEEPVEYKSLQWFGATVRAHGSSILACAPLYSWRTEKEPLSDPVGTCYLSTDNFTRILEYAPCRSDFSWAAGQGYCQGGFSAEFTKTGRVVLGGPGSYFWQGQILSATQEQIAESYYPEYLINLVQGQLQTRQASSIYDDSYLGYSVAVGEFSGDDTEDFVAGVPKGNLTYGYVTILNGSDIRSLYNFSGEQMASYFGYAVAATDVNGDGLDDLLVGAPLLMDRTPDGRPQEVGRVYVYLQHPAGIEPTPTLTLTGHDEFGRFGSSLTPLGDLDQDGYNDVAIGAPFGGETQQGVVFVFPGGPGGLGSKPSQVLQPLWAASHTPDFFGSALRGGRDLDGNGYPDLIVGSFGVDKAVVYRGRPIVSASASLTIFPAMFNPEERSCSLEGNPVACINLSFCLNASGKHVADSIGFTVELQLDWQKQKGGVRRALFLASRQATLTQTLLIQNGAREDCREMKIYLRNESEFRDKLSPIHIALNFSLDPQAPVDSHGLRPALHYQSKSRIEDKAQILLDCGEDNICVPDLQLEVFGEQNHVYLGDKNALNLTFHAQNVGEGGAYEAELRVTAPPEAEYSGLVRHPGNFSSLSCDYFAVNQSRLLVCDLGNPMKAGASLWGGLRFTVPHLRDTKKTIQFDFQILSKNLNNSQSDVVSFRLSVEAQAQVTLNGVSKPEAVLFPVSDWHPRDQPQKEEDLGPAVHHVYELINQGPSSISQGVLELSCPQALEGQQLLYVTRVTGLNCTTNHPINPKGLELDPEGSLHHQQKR
Chain of integrin α5β1 (P08648 895-1049 partner limits assumed): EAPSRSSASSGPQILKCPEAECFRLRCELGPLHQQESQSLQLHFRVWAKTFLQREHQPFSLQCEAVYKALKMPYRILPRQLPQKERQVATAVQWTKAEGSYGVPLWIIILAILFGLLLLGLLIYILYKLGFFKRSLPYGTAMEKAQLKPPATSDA
Chain of integrin α5β1 (P05556 21-798): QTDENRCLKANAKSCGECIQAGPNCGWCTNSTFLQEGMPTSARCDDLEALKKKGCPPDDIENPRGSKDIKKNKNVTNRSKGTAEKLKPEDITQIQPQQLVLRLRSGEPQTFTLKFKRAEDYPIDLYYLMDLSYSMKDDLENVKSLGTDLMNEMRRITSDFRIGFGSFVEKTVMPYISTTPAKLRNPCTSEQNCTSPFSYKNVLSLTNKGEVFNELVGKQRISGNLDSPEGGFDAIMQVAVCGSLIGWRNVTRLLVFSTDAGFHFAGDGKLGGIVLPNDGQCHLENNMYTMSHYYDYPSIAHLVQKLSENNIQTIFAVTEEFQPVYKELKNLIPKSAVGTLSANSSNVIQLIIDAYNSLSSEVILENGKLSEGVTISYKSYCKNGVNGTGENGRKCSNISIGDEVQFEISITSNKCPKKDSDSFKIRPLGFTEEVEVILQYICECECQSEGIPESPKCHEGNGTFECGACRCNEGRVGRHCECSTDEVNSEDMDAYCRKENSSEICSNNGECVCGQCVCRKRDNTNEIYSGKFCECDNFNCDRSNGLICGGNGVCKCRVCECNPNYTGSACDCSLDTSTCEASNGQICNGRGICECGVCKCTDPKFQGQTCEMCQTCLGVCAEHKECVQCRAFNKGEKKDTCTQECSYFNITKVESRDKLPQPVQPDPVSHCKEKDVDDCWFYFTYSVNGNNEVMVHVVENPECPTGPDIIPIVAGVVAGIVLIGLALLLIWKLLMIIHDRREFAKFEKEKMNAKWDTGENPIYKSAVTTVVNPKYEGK

Take “NYLTHRQ (listed as Homo sapiens) [peptide 12]”: the “dependence of EC adhesion to peptide 12 on divalent cations” value in assay [1] is given as “requires divalent cations; also recorded: sensitive to divalent cations”. Further, the “direct support of EC adhesion by plate-linked peptide” value with HUVEC [2] was “induced the adhesion of EC; also recorded: directly supports the adhesion of EC”. Further, in assay [3], the “inhibition of EC migration induced by fibronectin” value was “no significant inhibition”. Also, the “inhibition of adhesion of EC to fibronectin” value in [4] is “partially inhibit”. Moreover, in assay [5], the “inhibition of EC migration induced by VEGFR-1/Fc” value is “completely annulled the migratory response; also recorded: inhibits the induced cellular migration from VEGFR-1”. In assay [6], the “inhibition of adhesion of EC to VEGFR-1/Fc” value is “effectively blocked; also recorded: inhibit cellular adhesion to sVEGFR-1”. Besides, the “integrin α5β1 aggregation / bead attachment on EC” value with integrin α5β1 is reported as “A separate colouring for integrin α5β1 was observed around the beads”. Also, in the assay on HUVEC [7] (500 μg/ml peptide with VEGF 40 nM), the “effect on VEGF-induced tubule formation” value is reported as “increased the formation of induced VEGF tubules”. Further, the “induction of formation of tubules of EC” value in the assay on HUVEC [7] (500 μg/ml peptide, collagen I matrix) is reported as “able to induce in vitro the formation of vascular structures”. Besides, in the assay with HUVEC [7] (peptide in presence of VEGFR-1/Fc (data not shown)), the “formation of vascular structures in presence of VEGFR-1/Fc” value was “partially maintained its ability to induce the formation of vascular structures”. Besides, in the assay on rabbit corneal tissue, the corneal neoangiogenesis entry was “strongly promoted neoangiogenesis”.
